Results: ChEMBL document CHEMBL6109105, “Design, synthesis and antibacterial evaluation of oxazolidinone derivatives containing N-methylglycyl or quaternary ammonium salts” (Bioorg Med Chem, 2025)
Values after ≈ are worked out from the molar mass of the structure shown. Active and inactive are the calls of the source. The calls are words filed in the database; no cut-off is given here.

Columns and labels:
Staphylococcus aureus = assay: Antibacterial activity against Staphylococcus aureus ATCC 29213 assessed as inhibition of bacterial growth incubated for 16 to 18 hrs by microbroth dilution method; format: functional; conditions: time 16-18 hrs, read-out: MIC100
Enterococcus faecalis [1] = assay: Antibacterial activity against Enterococcus faecalis ATCC 29212 assessed as inhibition of bacterial growth incubated for 16 to 18 hrs by microbroth dilution method; format: functional; conditions: time 16-18 hrs, read-out: MIC100
Escherichia coli = assay: Antibacterial activity against Escherichia coli ATCC 25922 assessed as inhibition of bacterial growth incubated for 16 to 18 hrs by microbroth dilution method; format: functional; conditions: time 16-18 hrs, read-out: MIC100
[2] = tested on: Stenotrophomonas maltophilia; assay: Antibacterial activity against Stenotrophomonas maltophilia ATCC 17808 assessed as inhibition of bacterial growth incubated for 16 to 18 hrs by microbroth dilution method; format: functional; conditions: time 16-18 hrs, read-out: MIC100
[3] = Hemolytic activity in sheep RBC assessed as hemolysis incubated for 1 hrs by microplate reader analysis; format: toxicity, cell-based, Ovis aries, Erythrocyte; conditions: sheep red blood cells
[4] = Hemolytic activity in sheep RBC assessed as hemolysis at 1280 microg/ml incubated for 1 hrs by microplate reader analysis relative to control; format: toxicity, cell-based, Ovis aries, Erythrocyte; conditions: sheep red blood cells, dose 1280 µg/ml, read-out: Activity
Enterococcus faecalis [5] = assay: Bactericidal activity against Enterococcus faecalis assessed as reduction in bacterial count at 4 times of MIC measured within 10 hrs by time-kill kinetics analysis; format: functional
Enterococcus faecalis [6] = assay: Antibacterial activity against Enterococcus faecalis assessed as inhibition of bacterial growth incubated for 3 hrs in presence of 50% MHB by dilution method; format: functional, organism-based
Enterococcus faecalis [7] = assay: Antibacterial activity against Enterococcus faecalis assessed as inhibition of bacterial growth incubated for 3 hrs in presence of 50% plasma by dilution method; format: functional
[8] = Selectivity ratio of MIC for antibacterial activity against Enterococcus faecalis assessed as inhibition of bacterial growth measured after 3 hrs in presence of 50% plasma to MIC for antibacterial activity against Enterococcus faecalis assessed as inhibition of bacterial growth assessed as inhibition of bacterial growth measured after 16 to 18 hrs; format: functional
Enterococcus faecalis [9] = assay: Antibacterial activity against Enterococcus faecalis assessed as inhibition of bacterial growth incubated for 16 to 18 hrs in presence of 50% MHB by dilution method; format: functional; conditions: time 16-18 hrs
Enterococcus faecalis [10] = assay: Antibacterial activity against Enterococcus faecalis assessed as inhibition of bacterial growth incubated for 16 to 18 hrs in presence of 50% plasma by dilution method; format: functional; conditions: time 16-18 hrs
Enterococcus faecalis [11] = assay: Antibacterial activity against Enterococcus faecalis assessed as inhibition of bacterial growth incubated for 16 to 18 hrs in presence of 50% serum by dilution method; format: functional; conditions: time 16-18 hrs
Enterococcus faecalis [12] = assay: Post-antibiotic affect in Enterococcus faecalis assessed as reduction in growth rate at 8 times of MIC measured after 1 hrs; format: functional, organism-based
Enterococcus faecalis [13] = assay: Post-antibiotic affect in Enterococcus faecalis assessed as reduction in growth rate at 16 times of MIC measured after 1 hrs; format: functional, organism-based
Enterococcus faecalis [14] = assay: Antibacterial activity against Enterococcus faecalis assessed as post-antibiotic effect at 8 times of MIC measured up to 8 hrs; format: functional
Enterococcus faecalis [15] = assay: Antibacterial activity against Enterococcus faecalis assessed as post-antibiotic effect at 16 times of MIC measured up to 8 hrs; format: functional
Enterococcus faecalis [16] = assay: Disruption of preformed biofilm in Enterococcus faecalis assessed as bacterial survival rate at 16 times of MIC measured after 24 hrs relative to control; format: functional
Enterococcus faecalis [17] = assay: Disruption of preformed biofilm in Enterococcus faecalis assessed as bacterial survival rate at 32 times of MIC measured after 24 hrs relative to control; format: functional
Enterococcus faecalis [18] = assay: Disruption of preformed biofilm in Enterococcus faecalis assessed as reduction in bacterial density at 32 times of MIC measured after 24 hrs by SYTO 9 staining based confocal laser scanning microscopic analysis; format: functional, organism-based
Enterococcus faecalis [19] = assay: Antipersister-activity against in Enterococcus faecalis assessed as log reduction in persistent cells at 32 times of MIC preincubated with 100 times of MIC of rifampicin for 24 hrs followed by compound addition and measured after 8 hrs by drop plate counting method; format: functional
Cell membrane [20] = assay: Induction of cytoplasmic membrane depolarization in Enterococcus faecalis assessed as increase in fluorescence intensity by DiSC35 dye based microplate reader analysis
Cell membrane [21] = assay: Induction of cytoplasmic membrane permeability in Enterococcus faecalis assessed as increase in fluorescence intensity at 8 times of MIC by PI staining based analysis
Cell membrane [22] = assay: Induction of cell membrane damage in Enterococcus faecalis assessed as nucleic acid leakage at 8 times of MIC incubated for 2 hrs by fluorescence spectrophotometric analysis; format: subcellular
Cell membrane [23] = assay: Induction of cell membrane damage in Enterococcus faecalis assessed as nucleic acid leakage at 16 times of MIC incubated for 2 hrs by fluorescence spectrophotometric analysis; format: subcellular
Cell membrane [24] = assay: Induction of cell membrane damage in Enterococcus faecalis assessed as nucleic acid leakage at 32 times of MIC incubated for 2 hrs by fluorescence spectrophotometric analysis; format: subcellular
Enterococcus faecalis [25] = assay: Induction of ROS accumulation in Enterococcus faecalis assessed as fluorescence intensity at 8 times of MIC incubated for 30 mins by DCFH-DA staining based microplate reader analysis; format: functional; conditions: 0.5 h
Enterococcus faecalis [26] = assay: Induction of ROS accumulation in Enterococcus faecalis assessed as increase in fluorescence intensity at 8 times of MIC incubated for 30 mins in presence of NAC by DCFH-DA staining based microplate reader analysis; format: functional, organism-based
Enterococcus faecalis [27] = assay: Induction of ROS-dependent oxidative stress in Enterococcus faecalis assessed as decrease in GSH activity at 32 microg/ml (reference value: 1.34 %); format: functional; set-up: scale not given: the % may be the effect or the level left; conditions: dose 32 µg/ml
Enterococcus faecalis [28] = assay: Drug resistance, ratio of MIC for Enterococcus faecalis measured after 5 days to MIC for Enterococcus faecalis measured after 16 to 18 hrs; format: functional
Enterococcus faecalis [29] = assay: Antibacterial activity against Enterococcus faecalis assessed as inhibition of bacterial growth at 0.5 times of MIC incubated for 15 days by bacterial resistance development assay; format: functional, organism-based; conditions: time 15.0 day
[30] = Cytotoxicity against human HeLa cells assessed as cell viability at 64 microg/ml incubated for 24 hrs by CCK8 assay relative to control; format: toxicity, cell-based; conditions: at 64 µg/mL, read-out: Activity
HeLa [31] = assay: Cytotoxicity against human HeLa cells assessed as increase in fluorescence intensity at 1 to 16 microg/ml by vesicle leakage assay; format: toxicity, cell-based; conditions: dose 1-16 µg/ml
HeLa [32] = assay: Cytotoxicity against human HeLa cells assessed as increase in red fluorescence at 32 microg/ml incubated for 24 hrs by calcein-AM/PI staining based fluorescence microscopic analysis; format: toxicity, cell-based; conditions: dose 32 µg/ml
Enterococcus faecalis [33] = assay: Drug resistance, ratio of MIC for Enterococcus faecalis measured after 15 days to MIC for Enterococcus faecalis measured after 16 to 18 hrs; format: functional
Enterococcus faecalis [34] = assay: Induction of ROS-dependent oxidative stress in Enterococcus faecalis assessed as decrease in GSH activity at 8 times of MIC (reference value: 1.34 %); format: functional; set-up: scale not given: the % may be the effect or the level left

Row | Compound | MIC (Staphylococcus aureus) | MIC (Escherichia coli) | MIC [2] | HC50 at 1 h [3] | Activity (Enterococcus faecalis [6]) | Activity (Enterococcus faecalis [12]) | Activity (Enterococcus faecalis [13]) | PAE (Enterococcus faecalis [14]) | Activity (Enterococcus faecalis [16]) | Activity (Enterococcus faecalis [17]) | Activity (Enterococcus faecalis [19]) | Activity (Cell membrane [20]) | Activity (Cell membrane [21]) | Activity (Cell membrane [22]) | Activity (Cell membrane [23]) | Activity (Cell membrane [24]) | Flu intensity (Enterococcus faecalis [25]) | viability at 24 h, 64 microg/ml [30] | further results
1 | CC(=O)NC[C@H]1CN(c2ccc(N3CCN(C(=O)CN(C)Cc4ccc([N+](=O)[O-])cc4)CC3)c(F)c2)C(=O)O1 | 8 µg/mL (≈ 14.7 µM) | > 128 µg/mL | > 128 µg/mL | > 1280 µg/mL | Active | Active | Active | 0.44 h | 0.3% | 0.04% | 3.71 log10CFU/ml | inactive | inactive | Active; Small Amount Of Leakage Observed | Active; Small Amount Of Leakage Observed | Active; Small Amount Of Leakage Observed | 280 a.u. | 59.8% | MIC (Enterococcus faecalis [1]): 2 µg/mL (≈ 3.69 µM); hemolysis at 1 h, 1280 microg/ml [4]: 3.19%; Activity (Enterococcus faecalis [5]): ~1 10^4CFU/ml; MIC (Enterococcus faecalis [7]): 8 µg/mL; Selectivity ratio [8]: 4; MIC (Enterococcus faecalis [9]): 2 µg/mL; MIC (Enterococcus faecalis [10]): 2 µg/mL; MIC (Enterococcus faecalis [11]): 4 µg/mL; PAE (Enterococcus faecalis [15]): 5.13 h; Activity (Enterococcus faecalis [18]): Active; Activity (Enterococcus faecalis [26]): inactive; Activity (Enterococcus faecalis [27]): 45.89%; Ratio (Enterococcus faecalis [28]): 2; Activity (Enterococcus faecalis [29]): Active; Activity (HeLa [31]): Non-toxic; Activity (HeLa [32]): Non-toxic
2 | CCn1cc(C(=O)O)c(=O)c2cc(F)c(N3CCNCC3)cc21 [NORFLOXACIN] | – | – | – | – | – | – | – | – | – | – | – | – | – | – | – | – | – | – | Ratio (Enterococcus faecalis [33]): 4
3 | CC(=O)NC[C@H]1CN(c2ccc(N3CCOCC3)c(F)c2)C(=O)O1 [LINEZOLID] | 1 µg/mL (≈ 2.96 µM) | > 128 µg/mL | > 128 µg/mL | > 1280 µg/mL | Active | Active | Active | 0.67 h | 1.36% | 0.49% | 3.24 log10CFU/ml | inactive | inactive | Active | Active | Active | 377 a.u. | 56.5% | Activity (Enterococcus faecalis [7]): Active; Activity (Enterococcus faecalis [34]): 13.01%
